{"source": "patent US20250255851A1", "about": "“SOLID FORMS OF AN ALDOSTERONE SYNTHASE INHIBITOR” (Boehringer Ingelheim International GmbH, priority 2024, published 2025)", "format_in_all_cases": "physicochemical", "key": {"[1]": {"assay": "Stability of crystalline form (resistance to change in crystalline form)", "source_text": "However, these solvate of Compound 1 are generally not as stable (for example, resistant to change in crystalline form) as Form I and Form X. This lack of stability generally requires special processing and storage conditions for the solvates, thus making them less desirable as a component of a solid form of a pharmaceutical preparation. […] Alternatively, processes for preparing Compound 1 may involve formation of a crystalline solvate form of Compound 1 as an intermediate step prior to final preparation of Form I or Form X. For example, the purification and/or isolation of the crystalline solvates of Compound 1 may be used to remove impurities prior to conversion of the crystalline solvates to Form I and/or Form X using methods described herein.\nDespite the lower stability of the other crystalline forms of Compound 1 (Forms II, Ill, IV, VI, VII and IX), the other crystalline forms are still useful as intermediates to prepare Form I and/or Form X as described herein."}, "[2]": {"assay": "Dynamic Vapor Sorption (DVS) water sorption isotherm", "experimental": "Water sorption isotherms are determined using a dynamic vapor sorption system (Advantage 1, DVS, London, UKDVS Intrinsic Plus, Surface Measurement Systems, Allentown, PA). Approximately 5-10 mg of solid is weighed into a tared aluminum pan. […] Equilibration criteria are dm/dt of 0.002% over 5 minutes or 360 minutes at a specified % RH. Each sample is equilibrated at each RH step for at least 60 min, and equilibrium is assumed if weight increase is less than 0.1% within one minute, and the maximum duration on each RH is 6 hours. Therefore, each sample is held at a given RH for 1 to 6 hours depending on how fast the equilibrium is reached. Exemplary DVS of the compounds of the invention are found in the Figures."}, "[3]": {"assay": "Biopharmaceutics Classification System (BCS) classification"}, "[4]": {"assay": "Storage stability of solid form samples at controlled temperature and relative humidity", "settings": "at least 9 months at 25° and 60% and at least 6 months at 40° and 75% relative humidity; both storage conditions", "experimental": "Samples of Form I were maintained for at least 9 months at 25°, and 60% and at least 6 months at 40° and 75% relative humidity.\nSamples of Form X were maintained for at least 9 months at 25°, and 60% and at least 6 months at 40° and 75% relative humidity."}}, "data": [{"smiles": "C[C@]1(CO)Cc2ncn(-c3ccc(C#N)c(Cl)c3)c2C(=O)O1", "note": "[Form IV, 2-chloro-4-[(6R)-6-(hydroxymethyl)-6-methyl-4-oxo-3H,4H,6H,7H-pyrano[3,4-d]imidazol-3-yl]benzonitrile]", "values": [{"measurement": "conversion of crystalline form", "setting": "[1]; at elevated temperature and/or under high humidity", "result": "convert to Form I and/or Form X"}]}, {"smiles": "C[C@]1(CO)Cc2ncn(-c3ccc(C#N)c(Cl)c3)c2C(=O)O1", "note": "[Form VI, 2-chloro-4-[(6R)-6-(hydroxymethyl)-6-methyl-4-oxo-3H,4H,6H,7H-pyrano[3,4-d]imidazol-3-yl]benzonitrile]", "values": [{"measurement": "solid form transformation during DVS (solvent replaced by water)", "setting": "[2]; DVS cycles, 25° C.", "result": "transformed to a mixture of Form I and Form III"}, {"measurement": "mass stability over humidity range (DVS profile)", "setting": "[2]; sharp descending step when 80% RH was reached", "result": "stable over a wide humidity range from RH=0 to the 80%"}]}, {"smiles": "C[C@]1(CO)Cc2ncn(-c3ccc(C#N)c(Cl)c3)c2C(=O)O1", "note": "[Form I, 2-chloro-4-[(6R)-6-(hydroxymethyl)-6-methyl-4-oxo-3H,4H,6H,7H-pyrano[3,4-d]imidazol-3-yl]benzonitrile]", "values": [{"measurement": "BCS class", "setting": "[3]", "result": "class 1"}, {"measurement": "water uptake (DVS)", "setting": "[2]; at 95% Rh during the second cycle, 25° C.", "result": "about 0.4 % (wt.)"}, {"measurement": "hygroscopicity (from DVS plot)", "setting": "[2]; second DVS cycle", "result": "non-hygroscopic"}, {"measurement": "relative stability of crystalline form (resistance to change in form)", "setting": "[1]; compared with Form II, Form III and the crystalline solvate forms", "result": "more stable"}, {"measurement": "impurity levels after storage", "setting": "[4]", "result": "no increase in impurity levels"}, {"measurement": "particle size distribution after storage", "setting": "[4]", "result": "no change in particle sized distribution"}, {"measurement": "solid form after storage", "setting": "[4]", "result": "no change in solid form"}, {"measurement": "water content after storage", "setting": "[4]", "result": "no increase in water content"}]}, {"smiles": "C[C@]1(CO)Cc2ncn(-c3ccc(C#N)c(Cl)c3)c2C(=O)O1", "note": "[Form X, 2-chloro-4-[(6R)-6-(hydroxymethyl)-6-methyl-4-oxo-3H,4H,6H,7H-pyrano[3,4-d]imidazol-3-yl]benzonitrile]", "values": [{"measurement": "water uptake (DVS)", "setting": "[2]; at 90% Rh during the second cycle, 25° C.", "result": "about 0.07%"}]}]}
